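Dose response: 5 concentrations. Exposure: 48 h. Format: 96-well plates. Endpoint: linear interpolation; highest concentration if not reached. Abbreviation: GI50, concentration required for 50% inhibition of growth. TGI is the concentration that stops growth completely.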
Legend:
Assay in all cases: NCI anticancer screen, dose series, 48 h
786-0 renal = tested on: 786-0 renal
A498 renal = tested on: A498 renal
A549 NSCLC = tested on: A549 NSCLC
ACHN renal = tested on: ACHN renal
BT-549 breast = tested on: BT-549 breast
CAKI-1 renal = tested on: CAKI-1 renal
CCRF-CEM leukemia = tested on: CCRF-CEM leukemia
COLO 205 colon = tested on: COLO 205 colon
DU-145 prostate = tested on: DU-145 prostate
EKVX NSCLC = tested on: EKVX NSCLC
HCC-2998 colon = tested on: HCC-2998 colon
HCT-116 colon = tested on: HCT-116 colon
HCT-15 colon = tested on: HCT-15 colon
HL-60(TB) leukemia = tested on: HL-60(TB) leukemia
HOP-62 NSCLC = tested on: HOP-62 NSCLC
HOP-92 NSCLC = tested on: HOP-92 NSCLC
HS 578T breast = tested on: HS 578T breast
HT29 colon = tested on: HT29 colon
K-562 leukemia = tested on: K-562 leukemia
KM12 colon = tested on: KM12 colon
LOX IMVI melanoma = tested on: LOX IMVI melanoma
M14 melanoma = tested on: M14 melanoma
MALME-3M melanoma = tested on: MALME-3M melanoma
MCF7 breast = tested on: MCF7 breast
MDA-MB-231 breast = tested on: MDA-MB-231 breast
MDA-MB-435 = tested on: MDA-MB-435
MOLT-4 leukemia = tested on: MOLT-4 leukemia
NCI-H226 lung = tested on: NCI-H226 lung
NCI-H23 lung = tested on: NCI-H23 lung
NCI-H460 lung = tested on: NCI-H460 lung
NCI/ADR-RES ovarian = tested on: NCI/ADR-RES ovarian
OVCAR-3 ovarian = tested on: OVCAR-3 ovarian
OVCAR-4 ovarian = tested on: OVCAR-4 ovarian
OVCAR-5 ovarian = tested on: OVCAR-5 ovarian
OVCAR-8 ovarian = tested on: OVCAR-8 ovarian
PC-3 prostate = tested on: PC-3 prostate
RPMI-8226 leukemia = tested on: RPMI-8226 leukemia
RXF 393 renal = tested on: RXF 393 renal
SF-268 CNS = tested on: SF-268 CNS
SF-295 CNS = tested on: SF-295 CNS
SF-539 CNS = tested on: SF-539 CNS
SK-MEL-28 melanoma = tested on: SK-MEL-28 melanoma
SK-MEL-5 melanoma = tested on: SK-MEL-5 melanoma
SK-OV-3 ovarian = tested on: SK-OV-3 ovarian
SN12C renal = tested on: SN12C renal
SNB-19 CNS = tested on: SNB-19 CNS
SNB-75 CNS = tested on: SNB-75 CNS
SR leukemia = tested on: SR leukemia
SW-620 colon = tested on: SW-620 colon
T-47D breast = tested on: T-47D breast
TK-10 renal = tested on: TK-10 renal
U251 CNS = tested on: U251 CNS
UACC-257 melanoma = tested on: UACC-257 melanoma
UACC-62 melanoma = tested on: UACC-62 melanoma
IGROV1 ovarian = tested on: IGROV1 ovarian
NCI-H522 lung = tested on: NCI-H522 lung
SK-MEL-2 melanoma = tested on: SK-MEL-2 melanoma
UO-31 renal = tested on: UO-31 renal

Structure (SMILES): CCOC(=O)C1=C(C)N(c2ccc(OC)cc2)C2(O)C=CC(=O)C3C(=O)N(c4ccccc4)C(=O)C132 (centres undefined)
- GI50 (786-0 renal): 2.28 µM
- TGI (786-0 renal): 5.34 µM
- GI50 (A498 renal): 11.4 µM
- TGI (A498 renal): 23.5 µM
- GI50 (A549 NSCLC): 3.29 µM
- TGI (A549 NSCLC): 13 µM
- GI50 (ACHN renal): 1.94 µM
- TGI (ACHN renal): 3.93 µM
- GI50 (BT-549 breast): 1.93 µM
- TGI (BT-549 breast): 4.15 µM
- GI50 (CAKI-1 renal): 3.52 µM
- TGI (CAKI-1 renal): 10.1 µM
- GI50 (CCRF-CEM leukemia): 1.67 µM
- TGI (CCRF-CEM leukemia): 13 µM
- GI50 (COLO 205 colon): 1.9 µM
- TGI (COLO 205 colon): 3.83 µM
- GI50 (DU-145 prostate): 1.82 µM
- TGI (DU-145 prostate): 4.7 µM
- GI50 (EKVX NSCLC): 2.71 µM
- TGI (EKVX NSCLC): 12.1 µM
- GI50 (HCC-2998 colon): 1.71 µM
- TGI (HCC-2998 colon): 3.19 µM
- GI50 (HCT-116 colon): 1.17 µM
- TGI (HCT-116 colon): 2.48 µM
- GI50 (HCT-15 colon): 1.95 µM
- TGI (HCT-15 colon): 6.5 µM
- GI50 (HL-60(TB) leukemia): 2.34 µM
- TGI (HL-60(TB) leukemia): 5.82 µM
- GI50 (HOP-62 NSCLC): 3.72 µM
- TGI (HOP-62 NSCLC): 10.3 µM
- GI50 (HOP-92 NSCLC): 2.78 µM
- TGI (HOP-92 NSCLC): 7.97 µM
- GI50 (HS 578T breast): 3.89 µM
- TGI (HS 578T breast): 29.9 µM
- GI50 (HT29 colon): 2.04 µM
- TGI (HT29 colon): 3.75 µM
- GI50 (K-562 leukemia): 2.68 µM
- TGI (K-562 leukemia): > 100 µM
- GI50 (KM12 colon): 1.84 µM
- TGI (KM12 colon): 3.41 µM
- GI50 (LOX IMVI melanoma): 1.55 µM
- TGI (LOX IMVI melanoma): 2.96 µM
- GI50 (M14 melanoma): 2.2 µM
- TGI (M14 melanoma): 5.39 µM
- GI50 (MALME-3M melanoma): 2.04 µM
- TGI (MALME-3M melanoma): 3.83 µM
- GI50 (MCF7 breast): 2.6 µM
- TGI (MCF7 breast): 11.1 µM
- GI50 (MDA-MB-231 breast): 3.19 µM
- TGI (MDA-MB-231 breast): 7.77 µM
- GI50 (MDA-MB-435): 2.72 µM
- TGI (MDA-MB-435): 7.47 µM
- GI50 (MOLT-4 leukemia): 2.42 µM
- TGI (MOLT-4 leukemia): 5.66 µM
- GI50 (NCI-H226 lung): 2.56 µM
- TGI (NCI-H226 lung): 5.18 µM
- GI50 (NCI-H23 lung): 2.34 µM
- TGI (NCI-H23 lung): 6.66 µM
- GI50 (NCI-H460 lung): 2.08 µM
- TGI (NCI-H460 lung): 5.25 µM
- GI50 (NCI/ADR-RES ovarian): 3.57 µM
- TGI (NCI/ADR-RES ovarian): 22.3 µM
- GI50 (OVCAR-3 ovarian): 1.89 µM
- TGI (OVCAR-3 ovarian): 3.66 µM
- GI50 (OVCAR-4 ovarian): 2.21 µM
- TGI (OVCAR-4 ovarian): 5.89 µM
- GI50 (OVCAR-5 ovarian): 4.08 µM
- TGI (OVCAR-5 ovarian): 22.8 µM
- GI50 (OVCAR-8 ovarian): 3.58 µM
- TGI (OVCAR-8 ovarian): 17.3 µM
- GI50 (PC-3 prostate): 2.89 µM
- TGI (PC-3 prostate): 10.1 µM
- GI50 (RPMI-8226 leukemia): 1.95 µM
- TGI (RPMI-8226 leukemia): 5.15 µM
- GI50 (RXF 393 renal): 1.81 µM
- TGI (RXF 393 renal): 3.42 µM
- GI50 (SF-268 CNS): 3.51 µM
- TGI (SF-268 CNS): 18.4 µM
- GI50 (SF-295 CNS): 15.1 µM
- TGI (SF-295 CNS): 28.6 µM
- GI50 (SF-539 CNS): 2.27 µM
- TGI (SF-539 CNS): 5.6 µM
- GI50 (SK-MEL-28 melanoma): 1.86 µM
- TGI (SK-MEL-28 melanoma): 4.29 µM
- GI50 (SK-MEL-5 melanoma): 1.51 µM
- TGI (SK-MEL-5 melanoma): 3.05 µM
- GI50 (SK-OV-3 ovarian): 9.92 µM
- TGI (SK-OV-3 ovarian): 21.7 µM
- GI50 (SN12C renal): 4.09 µM
- TGI (SN12C renal): 12.5 µM
- GI50 (SNB-19 CNS): 4.74 µM
- TGI (SNB-19 CNS): 16.8 µM
- GI50 (SNB-75 CNS): 4.16 µM
- TGI (SNB-75 CNS): 13.8 µM
- GI50 (SR leukemia): 1.59 µM
- TGI (SR leukemia): 5.26 µM
- GI50 (SW-620 colon): 1.88 µM
- TGI (SW-620 colon): 3.83 µM
- GI50 (T-47D breast): 1.79 µM
- TGI (T-47D breast): 6.08 µM
- GI50 (TK-10 renal): 3.48 µM
- TGI (TK-10 renal): 9.05 µM
- GI50 (U251 CNS): 2.14 µM
- TGI (U251 CNS): 5.21 µM
- GI50 (UACC-257 melanoma): 2.78 µM
- TGI (UACC-257 melanoma): 11 µM
- GI50 (UACC-62 melanoma): 2.41 µM
- TGI (UACC-62 melanoma): 5.47 µM

Structure (SMILES): Cn1cnc([N+](=O)[O-])c1[Se]c1ncnc2nc[nH]c12
- TGI (786-0 renal): 26.5 µM
- TGI (A498 renal): 37 µM
- TGI (A549 NSCLC): > 100 µM
- TGI (ACHN renal): 83.5 µM
- TGI (BT-549 breast): 33.8 µM
- TGI (CAKI-1 renal): 22.1 µM
- TGI (CCRF-CEM leukemia): 34.1 µM
- TGI (COLO 205 colon): 33.3 µM
- TGI (DU-145 prostate): > 100 µM
- TGI (EKVX NSCLC): 47.4 µM
- TGI (HCT-116 colon): 74.5 µM
- TGI (HCT-15 colon): 81.6 µM
- TGI (HOP-62 NSCLC): 50.3 µM
- TGI (HOP-92 NSCLC): 27.9 µM
- TGI (HS 578T breast): 39.9 µM
- TGI (HT29 colon): 84.4 µM
- TGI (IGROV1 ovarian): > 100 µM
- TGI (K-562 leukemia): 25.6 µM
- TGI (KM12 colon): 54.1 µM
- TGI (LOX IMVI melanoma): 10.8 µM
- TGI (M14 melanoma): 24.8 µM
- TGI (MALME-3M melanoma): 21.1 µM
- TGI (MCF7 breast): 41.8 µM
- TGI (MDA-MB-231 breast): 19.2 µM
- TGI (MDA-MB-435): 19.5 µM
- TGI (MOLT-4 leukemia): 22 µM
- TGI (NCI-H226 lung): 22.6 µM
- TGI (NCI-H23 lung): 61.1 µM
- TGI (NCI-H460 lung): > 100 µM
- TGI (NCI-H522 lung): 14.7 µM
- TGI (NCI/ADR-RES ovarian): > 100 µM
- TGI (OVCAR-3 ovarian): 29.5 µM
- TGI (OVCAR-4 ovarian): 23.5 µM
- TGI (OVCAR-5 ovarian): 36.2 µM
- TGI (OVCAR-8 ovarian): 32.2 µM
- TGI (PC-3 prostate): > 100 µM
- TGI (RPMI-8226 leukemia): 71.7 µM
- TGI (RXF 393 renal): 38.7 µM
- TGI (SF-268 CNS): 78.9 µM
- TGI (SF-295 CNS): > 100 µM
- TGI (SF-539 CNS): 30.9 µM
- TGI (SK-MEL-2 melanoma): 34.5 µM
- TGI (SK-MEL-28 melanoma): 20.3 µM
- TGI (SK-MEL-5 melanoma): 6.6 µM
- TGI (SK-OV-3 ovarian): > 100 µM
- TGI (SN12C renal): 32.8 µM
- TGI (SNB-19 CNS): 85.8 µM
- TGI (SNB-75 CNS): > 100 µM
- TGI (SR leukemia): 17 µM
- TGI (SW-620 colon): 26.8 µM
- TGI (T-47D breast): 32.8 µM
- TGI (TK-10 renal): > 100 µM
- TGI (U251 CNS): 44 µM
- TGI (UACC-257 melanoma): 16.8 µM
- TGI (UACC-62 melanoma): 10.1 µM
- TGI (UO-31 renal): 60 µM
